The test system of data set [1] is TNFα. The data set can be described thus: TNFα mRNA in LPS stimulated BV2 cells (PCR). Type of data set: cell-based, murine. The note with it: BV2, LPS 100 ng/mL, 24 h, 1-100 nM. The procedure:
(§1) HMEC and BV2 samples were then collected with TRIzol for polymerase chain reaction (PCR) analysis. In brief, samples were subjected to a freeze-thaw cycle with TRIzol followed by the addition of 200 μL of chloroform (Thermo Fisher Scientific). The samples were shaken and placed in ice for 15 min. To aid in the separation of aqueous and organic layers, samples were centrifuged for 15 min at 15,000 g. The aqueous solution was collected and isopropanol was added to each sample (500 μL; Thermo Fisher Scientific). Samples were centrifuged again for 15 min at 15,000 g then washed with 75% ethanol in DEPC-treated water.
(§2) RNA content was determined through Nanodrop and equivalent amount of RNA from each sample were converted to complementary DNA (Applied Biosystems, Foster City, CA). PCR analysis was performed on STEP ONE PLUS® real-time PCR system (Applied Biosystems) with Fast SYBR Green reagent. PCR primers for VEGF-A, GAPDH, and IL-1β were obtained from Bio-Rad Laboratories (Hercules, CA). Primers were purchased from Integrated DNA Technologies (Coralville, IA). Primers for TNFα were: […]

In data set [2] the test system is TNFα. The experiment in a line: Choroid TNFα mRNA by PCR, CNV mouse model. It counts as in vivo. The procedure:
(§3) For PCR, choroids were immersed in TRIzol, homogenized with steel beads, and filtered through Corning COSTAR SPIN-X® centrifuge tube filters (Sigma-Aldrich) to remove tissue solids. The RNA was isolated following the previously described protocol and the RNA concentration was determined through Nanodrop. Equivalent amounts of RNA were converted to complementary DNA (cDNA) and analyzed with Fast SYBR Green reagent through the STEP ONE PCR® system.

The subject of data set [3] is choroidal neovascularization (CNV). The experiment in a line: Laser-induced CNV mouse model, CNV area. It counts as in vivo, C57BL/6J mice. The procedure:
Prior to laser induction of CNV, a cocktail of ketamine/xylazine/acepromazine (100 mg/kg of ketamine, 20 mg/kg of xylazine, and 3 mg/kg of acepromazine) was injected intraperitoneally to anesthetize the animals. Animals were then treated with a drop of topical 2.5% Phyenylephrine Hydrochloride ophthalmic solution followed by 0.5% Tetracaine hydrochloride ophthalmic solution for pupil dilation. A Micron III SLO (Phoenix Research Labs, Pleasanton, CA) was used to image the fundus and focus the attached laser system (Phoenix Research Labs). Four equidistantly placed laser burns in the Bruch's membrane were created with a laser power setting of 240 mW at a duration of 70 ms.
In brief, a 30G insulin syringe was used to create an injection opening in the sclera. A 10 μL Hamilton syringe was then used to administer the treatment directly into the vitreous cavity. After treatment, animals were given topical ocular antibiotic (gentamicin and prednisolone acetate ophthalmic ointment) to prevent infection. Animals were then sacrificed at set time points post treatment (7 and 14 days) for imaging and biochemical analysis.
(§4) At set time points, animals were sacrificed and the enucleated eyes fixed in 4% paraformaldehyde for 1 h. The choroid and retina are then dissected out. Tissues were blocked and permeabilized through 2 h incubation with a solution of 5% normal goat serum, 0.3% Triton X-100, and 1% bovine serum albumin at room temperature under constant agitation. To visualize macrophage, tissues were stained with anti-Iba1 antibody (1:100; FUJIFILM® Wako Chemicals, Osaka, Japan) followed by ALEXA FLUOR® 405-labeled goat anti-rabbit secondary antibody (1:200; Abcam, MA, USA). Blood vessels were stained with FITC-labeled isolectin (GS IB4) (1:100; Life Technologies, Eugene, OR, USA).
(§5) Flat-mounts were created by making four radial incisions on the tissue and mounting the relaxed tissues on coverslips. CNV formation was imaged with confocal 710 microscope (Carl Zeiss, Oberkochen, Germany) for biodistribution, and with an Axiovert phase contrast microscope for area calculation.

A further data set deals with IL-1β. The experiment in a line: IL-1β mRNA in LPS stimulated BV2 cells (PCR). It counts as cell-based, murine. The procedure: as §1, §2
The next data set has as its system HMECs. The experiment in a line: HMEC Matrigel tube formation assay. It counts as cell-based, human. As to conditions: 24 h pretreatment, imaged after 7 h on Matrigel. The procedure:
HMECs were seeded onto 12-well plates at a density of 1×10^5 cells/mL and allowed to grow to confluency. […] After 24 h of treatment, cells were collected by detaching them with trypsin, collecting the resulting cell suspension, and centrifuging at 300 g for 5 min. Tube formation assay was performed according to protocol provided by Lonza.
In brief, on the day of the assay, 96-well plates were coated with 75 μL of phenol-free […]® and left to polymerize at 37° C. for 20 min. The cell pellets were re-suspended with 300 μL of media and 75 μL of the solution (400,000 cells/mL) were seeded onto each […]®-coated wells.

Data set [4] relates to VEGF-A. The data set can be described thus: Choroid VEGF-A protein by ELISA, CNV mouse model. Type of data set: in vivo. The procedure: Eyes were dissected immediately after enucleation without fixation. The choroid was collected and stored at −80° C. prior to analysis. For ELISA analysis, choroids were immersed in T-PER protein extraction buffer (Thermo Fisher Scientific) and homogenized with 0.9-2.0 mm stainless steel beads on a Bullet Blender Storm tissue homogenizer (Next Advantage Inc., Averill Park, NY). The supernatant was centrifuged to collect the aqueous solution. The samples were stored in −80° C. and used without further processing for ELISA detection of VEGF-A levels.
For orientation: In an ELISA, binding on a coated surface is turned into a signal by an enzyme label.

The test system of data set [5] is VEGF-A. The data set can be described thus: Choroid VEGF-A mRNA by PCR, CNV mouse model. Type of data set: in vivo. As to conditions: day 14. As to the method:
as §3

For data set [6], the system named is CNV area (macrophages, endothelial cells). The data set can be described thus: In vivo distribution and colocalization, CNV mouse model. The procedure:
For biodistribution studies, 1 μg of Cy5-D-miR126-Cy3 or miR-126-Cy3 on a nucleic acid basis (at concentration of 1 μg/μL) were administered to the animals in accordance to the above steps. Tissues were extracted at set time points (1, 3, 5, 7, 14 days post-treatment).
as §4, §5
To assess uptake and distribution, Cy3 labeled miR-126 and dually labeled Cy5-D-miR126-Cy3 were injected into laser CNV mouse models and choroids were collected at 1, 3, 5, 7, 14 days post-injection. Iba1 staining was used to visualize the intracellular environment of macrophage, and isolectin GS-IB4 was used to stain for both blood vessels and macrophages.

In data set [7] the test system is VEGF-A. The data set can be described thus: VEGF-A mRNA in HMECs (PCR). Type of data set: cell-based, human. The procedure:
as §1, §2

[8] abbreviates: 24 h post-injection (earliest time point).

Here are results for one substance from patent US20250135012A1, “DENDRIMER CONJUGATES OF SMALL MOLECULE BIOLOGICS FOR INTRACELLULAR DELIVERY” (The Johns Hopkins University, priority 2021, published 2025).

For the substance “miR-126: sense 5′-UCGUACCGUGAGUAAUAAUGCG-3′ (SEQ ID NO: 4); antisense 5′-CGCAUUAUUACUCACGGUACGA-[Thiol C6 S—S]-3′ (SEQ ID NO: 5) (3' thiol C6 S-S on antisense; misc_feature 22 3' end linked to Thiol-Modifier C6 S-S)”, in the data set on TNFα [1], the “knockdown of TNFα” value is reported as about 50%. Also, in the data set with TNFα [2] (7 days, not statistically significant), the “TNFα mRNA” value is listed as “elevated”. Besides, the “TNFα mRNA” value in the data set with TNFα [2] (14 days) is “suppressed TNFα”. The CNV area in data set [3] (day 7, one intravitreal dose on day of CNV induction) was ~8,000 μm^2. In addition, in [3] (day 14), the “CNV area decrease (significance)” value is “insignificant decrease” and the “reduction of CNV area compared to the control” value was about 10%. Besides, the CNV area in data set [3] (day 14, one intravitreal dose) is ~8,000 μm^2. Moreover, in the data set on IL-1β, the “concentration with the higher/high IL-1β knockdown effect” value worked out at 10 nM. Moreover, the “dose response of IL-1β knockdown” value with IL-1β (1-100 nM) is “inverse dose response”. Besides, the network formation entry in the data set on HMECs is reported as “disruption of network formation”. Also, the “VEGF-A protein vs untreated” value in the data set on VEGF-A [4] (day 7) is recorded as “significant decrease”. Further, in the data set on VEGF-A [4] (day 14), the “VEGF levels, treated vs untreated animals” value is recorded as “no differences”. Moreover, the “VEGF-A mRNA levels” value in the data set with VEGF-A [5] is “still reduced”. Besides, in data set [6] (setting [8]), the “fraction of Cy3 (miR-126) signal colocalized with Iba1 (macrophages)” value is listed as “around 2%” and the “fraction of signal in combined macrophage/endothelial population (isolectin GS-IB4)” value is on record as “around 3%”. Also, the “time in the CNV target area” value in [6] (intravitreal, confocal microscopy) was “up to 7 days”. In [6] (peak at 5 days), the “fraction of signal colocalized within macrophages” value was about 10% and the “fraction of signal within combined macrophage/endothelial population” value is on record as about 15%. Besides, the “doses repressing VEGF-A at the same level as lower doses of D-miR126” value in the data set on VEGF-A [7] was in the range of 10 to 100 nM. Moreover, in the data set with VEGF-A [7] (24 h, full-serum), the “knockdown of VEGF-A production” value is about 20%.
